Experimental data from patent publication US10781217B2, “Imidazopyridazine compound” (HANMI PHARMACEUTICAL CO., LTD., priority 2017, dated 2020).

Test system: SK-CO-1 cell line
Assay: Cell growth inhibition on SK-CO-1 cell line (SRB assay)
Type: cell-based
Settings: cultured with compound for 3 days, SRB colorimetric test
Method: SK-CO-1 cell line purchased from the American Type Culture Collection (ATCC, USA) was cultured at […] with an EMEM medium (10% FBS, 1% penicillin/streptomycin) under the presence of 5% CO2. The cultured SK-CO-1 cell line was prepared in 5×10^4/100 μl, placed in a 96 well-plate, and cultured for one day. After that, the test compound was stepwise diluted in a ratio of 1/10 from 10 μM to 0.1 nM in the same EMEM medium, and then cultured for 3 days. In order to measure viability of the cell, a sulforhodamine B colorimetric (SRB, sigma Cat. S1402) test method was used. After discarding the medium, 0.1 ml of 10% trichloroacetic acid (TCA, Sigma Cat. T0699) was introduced to each well, and the cell line was fixed for 30 minutes to 1 hour, then washed with distilled water, and exposed in the air to dry the plate. After that, 100 μl of 0.4% SRB solution was introduced to each well, and the cell line was stained for 30 minutes at room temperature, and the plate was washed with distilled water and 1% acetic acid, and then dried in the air. 150 μl of […] trizma base solution was introduced to each well, and after dissolving the solid SRB therein, absorbance was measured at 540 nm using a microplate-reader. The growth inhibition value (GI50) of the cell line was calculated using a GraphPad Prism software.

1-(2-(((1^5Z,5Z)-2^5-fluoro-3-aza-1(3,6)-imidazo[1,2-b]pyridazina-2(4,2)pyrimidina-4(1,3)-benzenacyclohexapan-5-en-4^5-yl)oxy)ethyl)piperidin-4-ol [Example 1]
GI50: 21 nM
